“Also recorded” adds a separate entry of the source. Where two headings read alike, the source gives them in different places. Blank lines part the entries; values can stand above or below the substance they belong to. Where no end group is shown, it is not given here.
What was measured:
[1] = molecular target: T1, AbI SH2 domain (Homo sapiens, UniProt P00519); test: Surface plasmon resonance (Biacore) binding of biotinylated Abi1 peptides to GST-tagged AbI SH2 domain
T1 construct: GST-tagged AbI SH2 domain; gift of Bruce Mayer (University of Connecticut Health Center)
T1 sequence (P00519 127-217 limits assumed): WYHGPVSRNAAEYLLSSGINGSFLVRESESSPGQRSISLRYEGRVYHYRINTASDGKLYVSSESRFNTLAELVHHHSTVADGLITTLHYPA
Experimental: (§1) AbI kinase. His-tagged, uncapped active c-AbI, E46 through C-terminus (isoform 1b) (kind gift of Tony Koleske, Yale University, New Haven, Conn.), was produced and purified from baculovirus as described (Tanis et al., 2003) following treatment of insect cells with 30 μM STI-571 (Novartis Pharma AG, Basel, Switzerland) for 48 hrs prior to cell lysis. The expressed protein was affinity purified on nickel-nitriloacetic acid agarose, washed to remove the inhibitor, and subsequently purified by ion-exchange chromatography using a Mono S column (Amersham Biosciences, Piscataway, N.J.). GST fusions of c-AbI SH2 domain wild type and SH2 domain containing the R171K mutation, and mammalian expression plasmid containing c-AbI-GST (isoform 1b, with the GST at the C-terminus) were obtained from Bruce Mayer (University of Connecticut Health Center, Farmington, Conn.).
Surface Plasmon Resonance Assay. Surface plasmon resonance assay was performed using a Biacore 3000 instrument (BlAcore Inc., Piscataway, N.J.). Biotinylated 14-residue peptides, pY213 or Y213, were coupled to surface of streptavidin-coated (SA) biosensor chip (BIAcore Inc., Piscataway, N.J.). […] Sensograms (plots of changes in response unit on the surface as a function of time) derived were analyzed using the software BIAeval 3.0. […]

[2] = system: c-AbI kinase; test: c-AbI kinase assay with biotinylated model substrate peptide and 32P-γ-ATP; assay type: biochemical; settings: for Fold Change (PEP): Vmax relative to PEP
Experimental: as §1
Kinase assay. Measurement of kinase activity was essentially as described in (Tanis et al., 2003), using biotinylated model substrate peptide GGEAIYAAPFKK (SEQ ID NO: 16), (Brasher and Van Etten, 2000; Songyang et al., 1995) and ^32P-γ-ATP. SAM2 streptavidin-coated membrane (Promega Corφoration, Madison Wis.) was used to capture the substrate. Kinase assay mixtures contained 50 mM Tris-HCI pH 7.5, 10 mM MgCl2, 1 mM EGTA, 2 mM dithiothreitol, 0.01% Brij 35, and 100 μM ATP, 2 nM AbI kinase, substrate peptides, and Abil ligand peptides as indicated. Reactions were carried out for 5 min. at 30° C. To evaluate c-AbI kinase activity in LnCAP cell lines, cells were treated with pervanadate for 10 min. prior to cell lysis, and immunoprecipitates from lysed cells were tested using GST-Crk as substrate.

[3] = concentrations lower than 2 mM, 100 μM substrate peptide
[4] = peptide concentration 2 mM, 100 μM substrate peptide
[5] = increasing peptide concentrations, 100 μM substrate peptide

Substance: pY213: 14-residue Abi1 peptide containing phosphorylated tyrosine 213; Abi1 14-mer sequence vkpptvpndymtsp (SEQ ID NO:5) (VKPPTVPNDYMTSP)
Kd ([1]; peptide on SA chip, varying AbI SH2 concentration, 1:1 binding model, read-out: dissociation constant, KD): 33.2 nM

Substance: GTLSRTNPLTQKPPSPPMSGRGTLGRNTPYKTLEPVKPPTVPNDpYMTSP [Pro-pY213]
effect on c-AbI kinase activity (in words) [2]: showed inhibition
effect on c-AbI kinase activity (in words) [2, 3]: no inhibition was observed
effect on c-AbI kinase activity (in words) ([2]; peptide 1.5 mM): decrease of activity
effect on c-AbI kinase activity (in words) ([2]; peptide 0.75 to 1.25 mM): increased the kinase activity
effect on c-AbI kinase activity (in words) ([2]; peptide 1.75 and 2 mM): inhibition
effect on c-AbI kinase activity (in words) [2, 4]: enhanced the inhibitory effect
Kd (in words) ([1]; GST-SH2, Biacore, data not shown): low millimolar range

Substance: Y213: 14-residue Abi1 peptide containing nonphosphorylated tyrosine 213 (VKPPTVPNDYMTSP; not fully specified) [Peptide Y213]
effect on c-AbI kinase activity (in words) [2]: showed inhibition; also recorded: most potent inhibition
Vmax ([2]; Abi1 peptide at 2 mM, 5-min assay, increasing substrate peptide, mean ± s.d., n=3): 2.90 ± 1.16 pmol/min-μg
Km ([2]; Km of substrate peptide, Abi1 peptide at 2 mM): 16.3 ± 0.6 µM
Km ([2]; Km of substrate peptide, Y213 at 0.1): 14.9 ± 2.74 µM
Km ([2]; Km of substrate peptide, Y213 at 0.25): 16.5 ± 7.29 µM
Fold Change (PEP) ([2]; Abi1 peptide at 2 mM): 0.018
Fold Change (PEP) ([2]; Y213 at 0.1): 0.71
Fold Change (PEP) ([2]; Y213 at 0.25): 0.55
Vmax ([2]; Y213 peptide at 0.1 (mM)): 112.11 ± 7.80 pmol/min-μg
Vmax ([2]; Y213 peptide at 0.25): 86.68 ± 19.71 pmol/min-μg
effect on c-AbI kinase activity (in words) [2, 3]: significant kinase inhibition at lower concentrations than the pY213 peptide
effect on c-AbI kinase activity (in words) [2, 4]: more significant reduction of the kinase activity than pY213

Substance: GGEAIYAAPFKK (also: biotinylated, site not given here) [PEP, reference compound]
Km ([2]; Km of substrate peptide PEP alone): 21.2 ± 3.37 µM
Fold Change (PEP) ([2]; PEP alone): 1.00
Vmax ([2]; substrate peptide PEP alone, no Abi1 peptide, mean ± s.d., n=3): 157.79 ± 9.29 pmol/min-μg

Results, then the substance that gave them:

effect on c-AbI kinase activity (in words) [2, 5]: increased inhibition
Substance: Pro-Y198: Abi1 peptide spanning residues 169-203, with PXXP motif PPSPP and Y198, excludes pY213 sequence

effect on c-AbI kinase activity (in words) [2, 5]: effect was lost
Substance: Pro-F198: Abi1 peptide spanning residues 169-203 with Y198 to F198 replacement (GTLSRTNPPTQKPPSPPMSGRGTLGRNTPFKTLEP; UniProt Q8IZP0 169-203, looked up, variant Y198F)

— patent publication US8148320B2, “Peptide inhibitors of ABL kinases” (New York Blood Center, Inc., priority 2005, dated 2012)
